Assay results as given in patent US20090283473A1, “PLANT MATERIALS EXTRACTION METHOD” (Xylon Biotechnologies Ltd., priority 2002, published 2009).

Columns and labels:
Assay type in all cases: cell-based
[1] = test system: Seven species of bacteria and one species of fungus; assay: Disk diffusion assay, whole panel; details: all bacteria and fungus of the screening
Excerpt: (§1) Microorganisms: Laboratory strains of bacteria and fungus were obtained from Dr. Neil Towers' and Dr. Jovel's lab, The University of British Columbia. Seven species of bacteria and one species of fungus will be used in the screening process. The bacteria strains consisted of Staphylococcus aureus, methicillin resistant Staphylococcus aureus, Bacillus subtilis and Enterococcus faecalis, Escherichia coli, Pseudomonas aeruginosa, and Salmonella typhimurium. The fungal species was Candida albicans.
(§2) Methods: Disk diffusion assay on agar plates inoculated with the organisms being studies. The plates were divided into quadrants or sixths using a black marking pen. In quadrant 1 and 2, negative and positive controls were run (no treatment and gentamicin). Test compounds were run on the remaining available portions.

Pseudomonas aeruginosa = assay: Disk diffusion assay on agar plates; design: key: “+” active; “−” not active
Excerpt: as §1, §2

Candida albicans = assay: Disk diffusion assay on agar plates; design: key: “+” active; “−” not active
Excerpt: as §1, §2

Enterococcus faecalis = assay: Disk diffusion assay on agar plates; design: key: “+” active; “−” not active
Excerpt: as §1, §2

Compound | anti-microbial activity across the panel (in words) [1] | Anti-microbial activity P.a (Pseudomonas aeruginosa) | Anti-microbial activity C.a (Candida albicans) | Anti-microbial activity E.f. (Enterococcus faecalis)
CC(C)c1cccc(=O)c(O)c1 [Hinokitiol standard, 2,4,6-Cycloheptatrien-1-one,2-hydroxy-4-(1-methylethyl)] | demonstrated activities against all the bacteria and fungus |  |  | 
CC1(C)C=CC=C(C(=O)O)C=C1 [Thujic acid standard, Thujic acid] | showed activities against some bacteria and fungus | − |  | 
Gentamicin | active against all the tested bacteria but not against C. albicans |  | − | +
